Eleven molecules from patent publication US20250296959A1, “B7-H3 TARGETING PEPTIDES AND CONSTRUCTS THEREOF” (Mariana Oncology Inc., priority 2024, published 2025) can be followed below.

The experiment addresses T1, human 4lg B7-H3 (Homo sapiens, UniProt Q5ZPR3).
T1 sequence (Q5ZPR3 29-534): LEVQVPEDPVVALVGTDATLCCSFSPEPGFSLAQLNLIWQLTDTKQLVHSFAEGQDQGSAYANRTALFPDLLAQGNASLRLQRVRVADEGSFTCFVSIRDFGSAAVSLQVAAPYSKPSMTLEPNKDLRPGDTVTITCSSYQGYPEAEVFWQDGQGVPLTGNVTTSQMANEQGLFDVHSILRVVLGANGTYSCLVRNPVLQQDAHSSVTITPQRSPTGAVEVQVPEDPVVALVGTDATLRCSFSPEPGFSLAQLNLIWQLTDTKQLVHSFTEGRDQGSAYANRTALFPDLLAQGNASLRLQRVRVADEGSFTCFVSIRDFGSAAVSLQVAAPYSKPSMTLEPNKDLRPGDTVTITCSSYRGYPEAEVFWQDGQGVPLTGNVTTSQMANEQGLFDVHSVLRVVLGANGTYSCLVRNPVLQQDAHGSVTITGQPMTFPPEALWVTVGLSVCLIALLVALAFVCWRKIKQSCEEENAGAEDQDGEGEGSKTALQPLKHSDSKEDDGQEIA
Kind of experiment: Affinity determination by surface plasmon resonance (SPR) to 4Ig B7-H3. The settings on record: 4Ig B7-H3.

Where [1] appears, read: SPR KD—25° C., 25° C. flow cell temperature.

SMILES strings stand for the structures. Read-outs that look alike come from different tables or passages of the source. Starred links: 1 amine or outer side, 2 acyl side, 3 side chain; linkers in the order of their positions; H or OH if unused. Positions of bridges follow the written chain, without caps; N, C: chain ends. Non-standard residues stand in square brackets, D forms with d. Residues, ends and D or L forms follow the SMILES beside them. Groups on a side chain read outwards from the residue. *: point of attachment. Ala(piperidin-4-yl) = O=C([C@H](CC1CCN([*:3])CC1)N[*:1])[*:2]; Phe(3-CH2NH2) = O=C([C@H](Cc1cccc(CN[*:3])c1)N[*:1])[*:2]; DOTA = O=C(O)CN1CCN(CC(=O)O)CCN(CC(=O)*)CCN(CC(=O)O)CC1; X5 = O=C(O)CC1CCN(CC(=O)O)CCN(CC(=O)O)CCN(CC(=O)*)CC1; Trp(5-F) = N[C@@H](Cc1c[nH]c2ccc(F)cc12)C(=O)O; Trp(7-aza) = N[C@@H](Cc1c[nH]c2ncccc12)C(=O)O; Phe(3-F) = N[C@@H](Cc1cccc(F)c1)C(=O)O; γGlu = O=C(O)[C@H](CCC(=O)[*:2])N[*:1]; 1Nal = N[C@@H](Cc1cccc2ccccc12)C(=O)O; Ala(4-THP) = N[C@@H](CC1CCOCC1)C(=O)O; 4Pal = N[C@@H](Cc1ccncc1)C(=O)O; Cha = N[C@@H](CC1CCCCC1)C(=O)O; Tle = CC(C)(C)[C@H](N)C(=O)O; hLeu = CC(C)CC[C@H](N)C(=O)O; αMeK = C[C@](N)(CCCCN)C(=O)O; Nle = CCCC[C@H](N)C(=O)O; Orn = NCCC[C@H](N)C(=O)O; Abu = CC[C@H](N)C(=O)O

`CC(C)CC[C@H](NC(=O)CC[C@H](NC(=O)CN1CCN(CC(=O)O)CCN(CC(=O)O)CCN(CC(=O)O)CC1)C(=O)O)C(=O)N[C@@H](Cc1c[nH]c2ncccc12)C(=O)N[C@H]1CSSC[C@@H](C(=O)N[C@@H](Cc2cccc3ccccc23)C(=O)N[C@@H](Cc2ccccc2)C(=O)N2CCC[C@H]2C(N)=O)NC(=O)[C@H](Cc2ccc(O)cc2)NC(=O)[C@H](C(C)C)NC(=O)[C@H](CC(=O)O)NC(=O)[C@H](CC2CCOCC2)NC(=O)[C@H](CC2CCNCC2)NC(=O)CNC(=O)[C@H](C(C)(C)C)NC1=O` [compound 284, DOTA-gE-hLeu-7AzaW-C-Tbg-G-PipAla-ThpA-D-V-Y-C-1Nal-F-Pro-CONH2] ({DOTA-γGlu}-[hLeu][Trp(7-aza)]C[Tle]G[Ala(piperidin-4-yl)][Ala(4-THP)]DVYC[1Nal]FP-NH2; disulfide 3-11) gave a Kd under setting [1] of 10 to 100 nM. In the case of `CCCC[C@H](NC(C)=O)C(=O)N[C@@H](Cc1ccc(O)cc1)C(=O)N[C@H]1CSSC[C@@H](C(=O)N[C@@H](Cc2c[nH]c3ccccc23)C(=O)N[C@@H](Cc2ccccc2)C(=O)N[C@H](C(=O)N[C@H](CCCCNC(=O)CN2CCC(CC(=O)O)CCN(CC(=O)O)CCN(CC(=O)O)CC2)C(N)=O)[C@@H](C)O)NC(=O)[C@H](Cc2ccc(O)cc2)NC(=O)[C@H](C(C)C)NC(=O)[C@H](CC(=O)O)NC(=O)[C@H](Cc2ccc(O)cc2)NC(=O)[C@H](CCCCN)NC(=O)CNC(=O)[C@H](C(C)C)NC1=O` (stereo partly drawn) [Cpd #27, Ac-Nle-Y-C-V-G-K-Y-D-V-Y-C-W-F-Thr-dLys(DOTA)-CONH2] (Ac-[Nle]YCVGKYDVYCWFT[dK](X5)-NH2; disulfide 3-11), the Kd by setting is: under setting [1], 1 to 10 nM; (SPR KD—37° C., 37° C. flow cell temperature) 1 to 10 nM. With `CC(=O)N[C@@H](CCC(C)C)C(=O)N[C@@H](Cc1ccc(O)cc1)C(=O)N[C@H]1CSSC[C@@H](C(=O)N[C@@H](Cc2cccc3ccccc23)C(=O)N[C@@H](Cc2ccccc2)C(=O)N2CCC[C@H]2C(=O)N[C@H](CCCCNC(=O)CC[C@H](NC(=O)CC[C@H](NC(=O)CC[C@H](NC(=O)CN2CCN(CC(=O)O)CCN(CC(=O)O)CCN(CC(=O)O)CC2)C(=O)O)C(=O)O)C(=O)O)C(N)=O)NC(=O)[C@H](Cc2ccc(O)cc2)NC(=O)[C@H](C(C)C)NC(=O)[C@H](CC(=O)O)NC(=O)[C@H](CC2CCCCC2)NC(=O)[C@H](CC2CCNCC2)NC(=O)CNC(=O)[C@H](C(C)(C)C)NC1=O` [compound 278, Ac-hLeu-Y-C-Tbg-G-PipAla-CHA-D-V-Y-C-1Nal-F-Pro-dLys(gE-gE-DOTA)-CONH2] (Ac-[hLeu]YC[Tle]G[Ala(piperidin-4-yl)][Cha]DVYC[1Nal]FP[dK]([γGlu-γGlu-γGlu-DOTA])-NH2; disulfide 3-11), the Kd under setting [1] was in the range of 1 to 10 nM. The same measure, in the same setting: the figure for `CC(=O)N[C@@H](CCC(C)C)C(=O)N[C@@H](Cc1ccc(O)cc1)C(=O)N[C@H]1CSSC[C@@H](C(=O)N[C@@H](Cc2c[nH]c3ccc(F)cc23)C(=O)N[C@@H](Cc2ccccc2)C(=O)N[C@@H](C(=O)N[C@H](CCCCNC(=O)CN2CCN(CC(=O)O)CCN(CC(=O)O)CCN(CC(=O)O)CC2)C(N)=O)[C@H](C)O)NC(=O)[C@H](Cc2ccc(O)cc2)NC(=O)[C@H](C(C)C)NC(=O)[C@H](CC(=O)O)NC(=O)[C@H](Cc2ccc(O)cc2)NC(=O)[C@H](CCCCN)NC(=O)CNC(=O)[C@H](C(C)C)NC1=O` [compound 163, Ac-hLeu-Y-C-V-G-K-Y-D-V-Y-C-5FW-F-dThr-dLys(DOTA)-CONH2] (Ac-[hLeu]YCVGKYDVYC[Trp(5-F)]F[dT][dK](DOTA)-NH2; disulfide 3-11) is 10 to 100 nM; for `CCCC[C@H](NC(C)=O)C(=O)N[C@@H](Cc1ccc(O)cc1)C(=O)N[C@H]1CSSC[C@@H](C(=O)N[C@@H](Cc2c[nH]c3ccccc23)C(=O)N[C@@H](Cc2ccccc2)C(=O)N[C@H](C(=O)N[C@H](CCCCNC(=O)CN2CCN(CC(=O)O)CCN(CC(=O)O)CCN(CC(=O)O)CC2)C(N)=O)[C@@H](C)O)NC(=O)[C@H](Cc2ccc(O)cc2)NC(=O)[C@H](C(C)C)NC(=O)[C@H](CC(=O)O)NC(=O)[C@H](Cc2ccc(O)cc2)NC(=O)[C@H](Cc2ccncc2)NC(=O)CNC(=O)[C@H](C(C)C)NC1=O` [compound 79, Ac-Nle-Y-C-V-G-4PyA-Y-D-V-Y-C-W-F-Thr-dLys(DOTA)-CONH2] (Ac-[Nle]YCVG[4Pal]YDVYCWFT[dK](DOTA)-NH2; disulfide 3-11) it is 10 to 100 nM. In turn, `CCCC[C@H](NC(C)=O)C(=O)N[C@@H](Cc1ccc(O)cc1)C(=O)N[C@H]1CSSC[C@@H](C(=O)N[C@@H](Cc2c[nH]c3ccccc23)C(=O)N[C@@H](Cc2ccccc2)C(=O)N[C@@H](CCCN)C(=O)N[C@H](CCCCNC(=O)CN2CCN(CC(=O)O)CCN(CC(=O)O)CCN(CC(=O)O)CC2)C(N)=O)NC(=O)[C@H](Cc2ccc(O)cc2)NC(=O)[C@H](C(C)C)NC(=O)[C@H](CC(=O)O)NC(=O)[C@H](Cc2ccc(O)cc2)NC(=O)[C@H](CCCCN)NC(=O)CNC(=O)[C@H](C(C)C)NC1=O` [compound 87, Ac-Nle-Y-C-V-G-K-Y-D-V-Y-C-W-F-Orn-dLys(DOTA)-CONH2] (Ac-[Nle]YCVGKYDVYCWF[Orn][dK](DOTA)-NH2; disulfide 3-11) showed a Kd under setting [1] of 10 to 100 nM.

Turning to `CC(=O)N[C@@H](CCC(C)C)C(=O)N[C@@H](Cc1ccc(O)cc1)C(=O)N[C@H]1CSSC[C@@H](C(=O)N[C@@H](Cc2c[nH]c3ccc(F)cc23)C(=O)N[C@@H](Cc2ccccc2)C(=O)N[C@H](C(=O)N[C@H](CCCCNC(=O)CN2CCN(CC(=O)O)CCN(CC(=O)O)CCN(CC(=O)O)CC2)C(=O)O)C(C)(C)O)NC(=O)[C@H](Cc2ccc(O)cc2)NC(=O)[C@H](C(C)C)NC(=O)[C@H](CC(=O)O)NC(=O)[C@H](CC2CCC(O)CC2)NC(=O)[C@H](CC2CCNCC2)NC(=O)CNC(=O)[C@H](C(C)(C)C)NC1=O` (single isomer, unassigned) [compound 480, Ac-hLeu-Y-C-Tbg-G-PipAla-4OHCha(pk2)-D-V-Y-C-5FW-F-hydroxyVal-dLys(DOTA)-COOH], the Kd (read-out: SPR KD—37° C., 37° C. flow cell temperature) is less than 1 nM. For the molecule `CC(=O)N[C@@H](CCC(C)C)C(=O)N[C@@H](Cc1ccc(O)cc1)C(=O)N[C@H]1CSSC[C@@H](C(=O)N[C@@H](Cc2c[nH]c3ccc(F)cc23)C(=O)N[C@@H](Cc2cccc(F)c2)C(=O)N[C@H](C(=O)N[C@H](CCCCNC(=O)CN2CCN(CC(=O)O)CCN(CC(=O)O)CCN(CC(=O)O)CC2)C(N)=O)[C@@H](C)O)NC(=O)[C@H](Cc2ccc(O)cc2)NC(=O)[C@H](C(C)C)NC(=O)[C@H](CC(=O)O)NC(=O)[C@H](Cc2ccc(O)cc2)NC(=O)[C@H](CCCCN)NC(=O)CNC(=O)[C@H](C(C)C)NC1=O` [compound 173, Ac-hLeu-Y-C-V-G-K-Y-D-V-Y-C-5FW-3FPhe-Thr-dLys(DOTA)-CONH2] (Ac-[hLeu]YCVGKYDVYC[Trp(5-F)][Phe(3-F)]T[dK](DOTA)-NH2; disulfide 3-11), the Kd under setting [1] was less than 1 nM. As to `CCCC[C@H](NC(C)=O)C(=O)N[C@@H](Cc1ccc(O)cc1)C(=O)N[C@H]1CSSC[C@@H](C(=O)N[C@@H](Cc2c[nH]c3ccccc23)C(=O)N[C@@H](Cc2ccccc2)C(=O)N[C@H](C(=O)N[C@H](CCCCNC(=O)CN2CCN(CC(=O)O)CCN(CC(=O)O)CCN(CC(=O)O)CC2)C(N)=O)[C@@H](C)O)NC(=O)[C@H](Cc2ccc(O)cc2)NC(=O)[C@H](CC)NC(=O)[C@H](CC(=O)O)NC(=O)[C@H](Cc2ccc(O)cc2)NC(=O)[C@H](CCCCN)NC(=O)CNC(=O)[C@H](C(C)C)NC1=O` [compound 96, Ac-Nle-Y-C-V-G-K-Y-D-Abu-Y-C-W-F-Thr-dLys(DOTA)-CONH2] (Ac-[Nle]YCVGKYD[Abu]YCWFT[dK](DOTA)-NH2; disulfide 3-11), the Kd under setting [1] fell in the range of 10 to 100 nM. Same read-out and setting: then `CC(=O)N[C@@H](CCC(C)C)C(=O)N[C@@H](Cc1ccc(O)cc1)C(=O)N[C@H]1CSSC[C@@H](C(=O)N[C@@H](Cc2cccc3ccccc23)C(=O)N[C@@H](Cc2ccccc2)C(=O)N2CCC[C@H]2C(N)=O)NC(=O)[C@H](Cc2ccc(O)cc2)NC(=O)[C@H](C(C)C)NC(=O)[C@H](CC(=O)O)NC(=O)[C@H](Cc2cccc(CNC(=O)CC[C@H](NC(=O)CC[C@H](NC(=O)CN3CCN(CC(=O)O)CCN(CC(=O)O)CCN(CC(=O)O)CC3)C(=O)O)C(=O)O)c2)NC(=O)[C@H](CCCCN)NC(=O)CNC(=O)[C@H](C(C)(C)C)NC1=O` [compound 255, Ac-hLeu-Y-C-Tbg-G-K-MAF(gE-gE-DOTA)-D-V-Y-C-1Nal-F-Pro-CONH2] (Ac-[hLeu]YC[Tle]GK[Phe(3-CH2NH2)]([γGlu-γGlu-DOTA])DVYC[1Nal]FP-NH2; disulfide 3-11), with 1 to 10 nM; and `CC(=O)N[C@@H](CCC(C)C)C(=O)N[C@@H](Cc1ccc(O)cc1)C(=O)N[C@H]1CSSC[C@@H](C(=O)N[C@@H](Cc2c[nH]c3ccc(F)cc23)C(=O)N[C@@H](Cc2ccccc2)C(=O)N[C@H](C(=O)N[C@H](CCCCNC(=O)CN2CCN(CC(=O)O)CCN(CC(=O)O)CCN(CC(=O)O)CC2)C(=O)O)[C@@H](C)O)NC(=O)[C@H](Cc2ccc(O)cc2)NC(=O)[C@H](C(C)C)NC(=O)[C@H](CC(=O)O)NC(=O)[C@H](CC2CCOCC2)NC(=O)[C@](C)(CCCCN)NC(=O)CNC(=O)[C@H](C(C)(C)C)NC1=O` [compound 353, Ac-hLeu-Y-C-Tbg-G-aMeLys-ThpA-D-V-Y-C-5FW-F-Thr-dLys(DOTA)-COOH] (Ac-[hLeu]YC[Tle]G[αMeK][Ala(4-THP)]DVYC[Trp(5-F)]FT[dK](DOTA)-OH; disulfide 3-11), with 100 to 300 nM.
